Results: patent publication US10391201B2, “Gene therapy” (Ospedale San Raffaele S.r.l., priority 2014, dated 2019)

Key:
Assay type in all cases: cell-based, human
CD4+ T cells = test: SINLV-GFP lentiviral transduction of activated CD4+ T cells
Protocol: (§1) CD4^+ T cells were activated in RPMI, supplemented with 10% FBS, penicillin (100 IU/mL), streptomycin (100 μg/mL), 2% glutamine, phytohaemagglutanin (PHA) (2 μg/mL, Roche) and IL-2 (300 IU/mL, Novartis) for three days and maintained in RPMI supplemented with 10% FBS, penicillin (100 IU/mL), streptomycin (100 μg/mL), 2% glutamine and IL-2 (300 UI/mL). Monocyte-derived macrophages (MDM) were differentiated from isolated CD14^+ monocytes in DMEM supplemented with 10% FBS, penicillin (100 IU/mL), streptomycin (100 μg/mL), 2% glutamine and 5% human serum AB (Lonza) for seven days.
(§2) Human CB and BM-derived haematopoietic stem/progenitor cells (HSPC) were cultured in serum-free StemSpan medium (StemCell Technologies) supplemented with 100 ng/mL recombinant human stem cell factor (rhSCF), 20 ng/mL recombinant human thrombopoietin (rhTPO), 100 ng/mL recombinant human Flt3 ligand (rhFlt3) and 20 ng/mL recombinant human IL6 (rhIL6) (all from Peprotech) 16 to 24 hours prior to transduction. […] After transduction, cells were washed and maintained serum-free StemSpan supplemented with cytokines as above until the reading of GFP-positive (GFP+) cells by FACS. […]
(§3) GFP expression in transduced cells was measured 5-7 days post-transduction. […]

[1] = tested on: monocyte-derived macrophages (MDM); test: SINLV-GFP lentiviral transduction of monocyte-derived macrophages; conditions: MOI 1, 10 μM CsA or 10 μg/mL rapamycin, FACS 5 days
Protocol: as §1, §2, §3

[2] = tested on: bone marrow (BM)-derived CD34+ cells
Protocol: (§4) Human CB and BM-derived haematopoietic stem/progenitor cells (HSPC) were cultured in serum-free StemSpan medium (StemCell Technologies) supplemented with 100 ng/mL recombinant human stem cell factor (rhSCF), 20 ng/mL recombinant human thrombopoietin (rhTPO), 100 ng/mL recombinant human Flt3 ligand (rhFlt3) and 20 ng/mL recombinant human IL6 (rhIL6) (all from Peprotech) 16 to 24 hours prior to transduction. HSPC were then transduced at a concentration of 1×10^6 cells per mL with vesicular stomatitis virus glycoprotein (VSV-G)-pseudotyped SINLV for 20 hours at the indicated multiplicity of infection (MOI) in the same medium. After transduction, cells were washed and maintained serum-free StemSpan supplemented with cytokines as above until the reading of GFP-positive (GFP+) cells by FACS. After FACS they were maintained in Roswell Park Memorial Institute medium (RPMI, Lonza) supplemented with 10% FBS, 25 ng/mL rhSCF, 5 ng/mL rhIL6, 25 ng/mL rhFlt3 and 5 ng/mL rhTPO for another seven days before analysis of vector copy numbers. MDM were transduced 7 days after differentiation. T lymphocytes were transduced at a concentration of 10^6 cells per mL, after 3 days of stimulation. All the cells were exposed to the vector for 16-20 hours.
(§5) They were added to the transduction medium at the indicated concentration and washed out with the vector 16-20 hours later.
(§6) GFP expression in transduced cells was measured 5-7 days post-transduction. Adherent MDM were detached by scraping in 5 mM PBS-EDTA, washed and resuspended in PBS containing 2% FBS. Cells grown in suspension were washed and resuspended in PBS containing 2% FBS. To exclude dead cells from the analysis, 10 ng/mL 7-aminoactinomycin D (7-AAD) was added.
(§7) DNA from cell cultures was extracted using a Maxwell 16 instrument (Promega) or Blood & Cell Culture DNA Micro Kit (Qiagen). To amplify the vector sequence, primers and probes complementary to the vector Rev responsive element sequence were used. Vector copy numbers and replication intermediates were normalised to genomic DNA content, which was assessed using the human TERT gene. Quantitative polymerase chain reaction (qPCR) primers and probe sequences and conditions were previously described (Santoni de Sio, F. R. et al (2006) Blood 107: 4257-65).

[3] = tested on: cord blood (CB)-derived CD34+ cells
Protocol: as §4, §5, §6, §7

CB-derived CD34+ cells = test: LV replication intermediates (late-RT, 2LTR circles, integrated copies) in CB-derived CD34+ cells
Protocol: CsA and rapamycin act on distinct steps on the LV life cycle. […] The LV genome fate was tracked by measuring late-RT product (A) and 2LTR circles (B) 24 hours after transduction and integrated proviral copies 2 weeks after transduction (C). Data represent the mean±SEM of four independent experiments expressed as fold versus DMSO WT (A,B) or as absolute copies/cell (C). D. IDLV transduction efficiency was measured 3 days after transduction by FACS and by measuring the retrotranscribed LV DNA products by PCR. Data are the mean±SEM of three independent experiments. P values are for one-way with Bonferonni's multiple comparison. *P<0.05, **P<0.01, ****P<0.0001.
CsA and rapamycin act on distinct steps on the LV life cycle. […] The LV genome fate was tracked by measuring late-RT product (A) and 2LTR circles (B) 24 hours after transduction and integrated proviral copies 2 weeks after transduction (C). Data represent the mean±SEM of four independent experiments expressed as fold versus DMSO WT (A,B) or as absolute copies/cell (C). D. IDLV transduction efficiency was measured 3 days after transduction by FACS (left panel) and by measuring the retrotranscribed LV DNA products by PCR (right panel). Data are the mean±SEM of three independent experiments. […]
To analyse viral replication intermediates, transduced cells were washed and resuspended in Monini lysis buffer (0.1% polyoxyethylene 10 lauryl ether (Sigma), 0.1 mg/mL proteinase K (Promega)) (25 μL per 1×10^5 cells), incubated at 65° C. for 2 h and heat inactivated at 94° C. for 15 min (Monini, P. et al. (1999) Blood 93: 4044-58). […] Late-RT and 2LTR circles were measured by semi-quantitative Taqman assay with primers described below and normalised using the human TERT gene. Results are expressed as fold versus the DMSO control, as described above.
DNA from cell cultures was extracted using a Maxwell 16 instrument (Promega) or Blood & Cell Culture DNA Micro Kit (Qiagen). […] Vector copy numbers and replication intermediates were normalised to genomic DNA content, which was assessed using the human TERT gene. […]

[4] = tested on: CB-derived CD34+ HSPC clonogenic progenitors; test: Colony-forming cell assay of transduced CB-derived CD34+ cells; conditions: MOI 10; plating of vital cells in methylcellulose (FIG. 21A)
Protocol: Colony-forming cell assays were performed by plating 8×10^2 human cord blood-derived CD34^+ cells transduced with SINLV-GFP at a MOI of 10 in presence of the different compounds in a methylcellulose-based medium (Methocult GF4434, Stem Cell Technologies). 15 days later, colonies were scored by light microscopy for colony numbers and morphology. CFU-E and BFU-E were scored as erythroid colonies, while CFU-G, CFU-M, CFU-GM and CFU-GEMM as myeloid colonies.
Human differentiated cells from CFC were harvested from a single plate (pool of colonies) and mixed into a single cell suspension. Cells were then washed and resuspended in PBS containing 2% FBS. For immunostaining, cells were incubated with anti-human receptor blocking antibodies for 15 min at 4° C. and then stained for 20 min at 4° C. with anti-human CD235a and CD33 antibodies (for antibodies, see Table 1). To exclude dead cells from the analysis, cells were washed and resuspended in PBS containing 10 ng/mL 7-aminoactinomycin D (7-AAD).

CO[C@H]1C[C@@H]2CC[C@@H](C)[C@@](O)(O2)C(=O)C(=O)N2CCCC[C@H]2C(=O)O[C@H]([C@H](C)C[C@@H]2CC[C@@H](O)[C@H](OC)C2)CC(=O)[C@H](C)/C=C(\C)[C@@H](O)[C@@H](OC)C(=O)[C@H](C)C[C@H](C)/C=C/C=C/C=C/1C [rapamycin, Rapamycin]
impact on transduction among the different CA mutants (CD4+ T cells; CA mutant SINLVs MOI 1): did not vary | impact on LV transduction efficiency (in words) (CD4+ T cells; MOI 1, 20 μm FK506 or 10 μg/mL rapamycin): a similar trend was observed | decrease in GFP+ cells (transduction) [1]: 2.8 fold | increase in the percentage of GFP+ cells [2]: 2 fold | increase in the percentage of GFP+ cells [3]: 2 fold | transduction efficiency in titration of Rapa ([3]; 10 μg/ml vs lower doses, MOI 1 (FIG. 28)): improved transduction efficiency over lower doses | GFP+ cells with clinical grade SINLV ([3]; CB-derived CD34+ cells, clinical grade PGK-GFP SINLV, MOI of 10 (FIG. 25A)): up to 60% | transduction efficiency of WT and CA mutant vectors ([3]; CD34+ cells, SINLVs with single CA point mutations MOI 1, vs DMSO (FIG. 14B)): increased efficiency for all CA mutants | transduction levels in all HSPC subpopulations ([3]; CD34− progenitors to CD34+CD133+CD90+ cells, FACS three days after transduction (FIG. 15C)): equally improved transduction levels | 2-long-terminal-repeat (2LTR) circles vs DMSO (CB-derived CD34+ cells; 10 μg/ml rapamycin, 24 hours after transduction): consequent increase | late-RT products vs DMSO, independently of the CA (CB-derived CD34+ cells; WT, A88T or A92E LV, 10 μg/ml rapamycin, 24 hours after transduction): two to threefold increase | integrated vector (proviral) copies vs DMSO (CB-derived CD34+ cells; all vectors, 2 weeks after transduction): increase | number of total, CFU-GM (myeloid) and BFU-E (erythroid) colonies [4]: No significant differences
